We go through four compounds from US7300937B2, “Derivatives of cyano-aryl (or cyanoheteroaryl)-carbonyl-piperazinyl-pyrimidines, their preparation and application as medication” (Laboratorios del Dr. Esteve, S.A., priority 2001, dated 2007).

As a reminder, the ED50 is the dose that gives a 50% effect, or the effect in half of the subjects. The melting point is the temperature of the solid-liquid transition.

Structures are written as SMILES. Structures can show the parent of a compound that is named as a salt. Marks after values point to notes of the source that are not given here.

One data set has as its system mice. Kind of data set: Sedative activity in mice (behaviour observation). It is filed as in vivo, mouse. The arrangement: unit not given here. The note with it: 80 mg/kg i.p. The method, then: The sedative activity was studied by observing the animals' behaviour after intraperitoneal (i.p.) administration of a dose of 80 mg/kg. This observation was conducted at different times, allowing to know the sedative effect and its duration.

The next data set concerns mouse. Nature of the data set: Anaesthetic activity in mice (IV, loss of three reflexes). The note with it: for time of anaesthesia: average time.
Data set [1] has as its system body tone and abdominal tone of the rats. Kind of data set: Myorelaxant activity in the IRWIN test in rats. In kind it is in vivo, rat. The note with it: 80 mg/kg ip. The method, then: The activity as muscular relaxant of the products of the invention was studied, by evaluating the effect on body tone and abdominal tone of the rats, following the method described by S. IRWIN (Gordon Res. Conf. on Medicinal Chem.,1959. p.133). The rats received the products under study in a dose of 80 mg/kg ip, and at several times after administration (½, 1, 2, 3, 4 and 5 hours) the body and abdominal tone were evaluated, comparing muscle tension to that of the control animals.

The next data set has as its system dog. Nature of the data set: Anaesthetic activity in dogs (IV infusion). The following applies: IV infusion 5 mg/ml/minute until fully anaesthetised.
The test system of data set [2] is convulsions induced by IV injection of pentamethylentetrazol (cardiazol). Kind of data set: Anticonvulsive activity in mice (convulsions due to cardiazol). The following applies: for ED50: Mus musculus; for % Activity: mice, cardiazol 45 mg/kg IV. In kind it is in vivo, mouse.
A further data set concerns rat. Nature of the data set: Anaesthetic activity in rats (IV infusion to maintain full anaesthesia for 1 hour). The following applies: IV infusion required to maintain full anaesthesia for 1 hour.

Experimental for dog: A saline solution of the product in study was perfused by means of a perfusion pump in a concentration and rate of 5 mg/ml/minute, through a cannula inserted in a vein of the front leg.
Experimental for mouse: The anaesthetic activity was determined after intravenous (IV) administration of the product under study in three different doses (15, 10 and 5 mg/kg) in the caudal vein of the mouse. The percentage of anaesthetised animals was recorded and the average time of anaesthesia calculated. Mice were considered to be anaesthetised when losing the three reflexes: positional reflex, response to painful stimulus reflex (prick in the tail) and palpebral reflex.

As for `Cc1ccc(-c2nc3ccc(C)cn3c2CC(=O)N(C)C)cc1` [Zolpidem, reference compound], the Sedative activity in the data set on mice (30′) amounted to 100; in the data set on mice (1 h), 90; in the data set with mice (2 h) it was 30; in the data set with mice (3 h), 0; in the data set with mice (4 h), 0; with mice (5 h), 0. The compound further displayed a Sedative activity in the data set on mice (24 h) of 0.

Regarding `CC(C)c1cccc(C(C)C)c1O` [Propofol, reference compound], the figures for the “% anaesthetised” value with mouse (5 mg/kg iv), in the data set with mouse (10 mg/kg iv) and in the data set on mouse (15 mg/kg iv) were 0%, 80% and 80%, respectively. For the same compound, the time of anaesthesia is recorded as 1 ′ in the data set with mouse (10 mg/kg iv) and 1.3 ′ in the data set with mouse (15 mg/kg iv). In addition, the “% muscular relaxation” value in data set [1] (after 1 h.) turned out to be 100%; in data set [1] (after 2 h.) it was 70%; in data set [1] (after 3 h.), 0%; in data set [1] (after 4 h.), 0%; in data set [1] (after 5 h.), 0%; in data set [1] (after ½ h.) it was 100%. Besides, in the data set with dog, the Anaesthetic dose is 21.6* mg/kg. The compound further showed a median effective dose (ED50) in data set [2] of 32.5 mg/kg. The “% Activity” value turned out to be 33% in data set [2] (20 mg/kg i.p.), 46% in data set [2] (40 mg/kg i.p.) and 100% in data set [2] (80 mg/kg i.p.). Moreover, in the data set on rat, the Total dose is 67 mg/kg.

`CCOc1ccnc(N2CCN(C(=O)c3ccccc3C#N)CC2)n1` (as salt: HCl) [Example 4, 2-[4-(2-cyanobenzoyl)-1-piperazinyl]-4-ethoxypyrimidine hydrochloride] gave a melting point of 147 to 151 °C.

Take `CCOc1ccnc(N2CCN(C(=O)c3ccccc3C#N)CC2)n1` [Example 4, 2-[4-(2-cyanobenzoyl)-1-piperazinyl]-4-ethoxypyrimidine hydrochloride]: the “% anaesthetised” value with mouse (5 mg/kg iv) stood at 0%; in the data set with mouse (10 mg/kg iv), 100%; in the data set on mouse (15 mg/kg iv), 100%. Moreover, the time of anaesthesia in the data set on mouse (10 mg/kg iv) is recorded as 2.6 ′; with mouse (15 mg/kg iv), 5.8 ′. Further, the “% muscular relaxation” value is given as 100% in data set [1] (after 1 h.); 100% in data set [1] (after 2 h.); 70% in data set [1] (after 3 h.); 33% in data set [1] (after 4 h.); 0% in data set [1] (after 5 h.); 100% in data set [1] (after ½ h.). In the data set on dog, the Anaesthetic dose is on record as 10.1 mg/kg. In addition, the Sedative activity was 90 in the data set on mice (30′); 75 with mice (1 h); 75 in the data set with mice (2 h); 35 in the data set on mice (3 h); 0 with mice (4 h); 0 in the data set with mice (5 h). In the data set with mice (24 h), this compound displayed a Sedative activity of 0. In data set [2], this compound had an ED50 of 25.1 mg/kg. In addition, the “% Activity” value in data set [2] (20 mg/kg i.p.) is on record as 40%; in data set [2] (40 mg/kg i.p.), 69%; in data set [2] (80 mg/kg i.p.) it was 87%. This compound gave a Total dose with rat of 56.8 mg/kg.
